Experimental data published in patent US20230271980A1, “PREPARATION AND APPLICATION OF TRICYCLIC PYRIMIDINONE COMPOUND AND ITS COMPOSITION” (NEUSCO BIOTECH LIMITED, priority 2020, published 2023).

What was measured:
[1] = target: T1, Recombinant human Lp-PLA2 (Homo sapiens, UniProt Q13093); assay: Recombinant human Lp-PLA2 (rhLp-PLA2) assay (PED6 assay); format: biochemical; settings: PED6 substrate; recombinant human Lp-PLA2 enzyme at 4 nM or 110 pM; 30 min pre-incubation; fluorescence ex 480/em 540; read-out: rhLp-PLA2 (pIC50) (converted)
T1 sequence (Q13093 22-441): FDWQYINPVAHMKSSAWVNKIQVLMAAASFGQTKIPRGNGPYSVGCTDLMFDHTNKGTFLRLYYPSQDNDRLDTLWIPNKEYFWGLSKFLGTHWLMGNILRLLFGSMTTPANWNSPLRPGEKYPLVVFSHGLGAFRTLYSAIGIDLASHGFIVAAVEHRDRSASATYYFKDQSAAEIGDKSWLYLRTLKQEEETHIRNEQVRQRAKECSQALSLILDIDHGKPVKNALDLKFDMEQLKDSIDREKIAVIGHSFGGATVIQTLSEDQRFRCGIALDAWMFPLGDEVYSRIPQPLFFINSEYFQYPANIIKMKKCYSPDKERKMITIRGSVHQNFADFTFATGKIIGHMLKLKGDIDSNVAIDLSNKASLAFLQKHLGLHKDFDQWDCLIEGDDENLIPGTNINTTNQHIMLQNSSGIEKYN
From the text: (1) Recombinant Human Lp-PLA2 (rhLp-PLA2) Assay (Also Known as PED6 Assay)
PED6 is a fluorescently labeled phospholipid that can be purchased directly from Invitogene or Molecular Probes. There is a fluorescence-quenching p-nitrophenyl group on the Sn3 position, and a Bodipy fluorescein (FL) group on the sn2 position. Once it is cleaved by the Lp-PLA2 enzyme, the FL group is released, resulting in enhanced fluorescence.
Assay method: The compound to be tested (as shown in Table 1) was mixed with DMSO solution at a volume ratio of 1:3, diluted to prepare a source plate of a 384-well microplate. Then 0.01 μl of the compound was transferred via an ECHO liquid dispenser from the source plate to a 384-well Greiner 784076 plate, and 5 microliters of a buffer composed of 50 mM HEPES, pH7.4, 150 mM NaCl, 1 mM CHAPS (the buffer solution contains Recombinant human Lp-PLA2 enzyme at a concentration of 4 nM or 110 pM) was added to each well on the plate. The plate was centrifuged at 500 rpm for 10 seconds. After 30 minutes of pre-incubation, 5 microliters of the above buffer solution was added to a 384-well Greiner784076 plate, and the plate was centrifuged at 500 rpm for 10 seconds.

[2] = target: T2, Lp-PLA2 enzyme in human plasma (Homo sapiens, UniProt Q13093); assay: Human plasma Lp-PLA2 assay (Thio-PAF assay); format: biochemical; settings: mixed human plasma; 2-thio-PAF substrate with CPM; 30 min pre-incubation; fluorescence ex 380/em 485; read-out: Thio-PAF (pIC50) (converted)
T2 construct: from tissue; host or cells: pooled (mixed) human plasma
T2 sequence (Q13093 22-441): T1 sequence (Q13093 22-441)
Method: (2) Human Plasma Lp-PLA2 Assay (Also Known as Thio-PAF Assay)
The human plasma assay was conducted using the sulphatide analog of PAF (phosphatidylcholine), which is hydrolyzed to produce phospholipids containing free sulfhydryl groups, subjected to Michael addition with CPM to generate fluorescence-enhancing maleimide.
Continuous quantitative analysis of thiol could be conducted by detecting the fluorescence intensity. This assay can be used to detect the inhibitory activity of the Lp-PLA2 inhibitor on the Lp-PLA2 enzyme in human plasma.
Assay Method: The compound to be tested (as shown in Table 2) was mixed with a DMSO solution in a volume ratio of (1:3), and diluted to prepare a source plate of a 384-well microplate. Then 0.01 μl of the compound was transferred via an ECHO liquid dispenser from the source plate to a 384-well Greiner 784076 low-volume plate, and 8 μl of pre-aliquoted and frozen mixed human plasma was added. The plate was centrifuged at 500 rpm for 10 seconds. After a 30 min pre-incubation, 2 μl of a substrate solution, and containing 2.5 mM 2-thio-PAF (a solution in ethanol), 32 μM CPM (a solution in DMSO) and a buffer of 3.2 mM N-ethylmaleimide (NEM) (a buffer solution consisting of 50 mM HEPES, pH7.4, 150 mM NaCl, 1 mM CHAPS) was added by a BRAVO liquid handling station to a 384-well Greiner 784076 low-volume plate. After 2 min, the reaction was quenched with 5 μl of 5% trifluoroacetic acid. After the plate was incubated at room temperature for 40 min in a dark place, the fluorescence intensity was read at ex 380/em 485 with an Envision microplate reader, and the XL fitting model in Excel was used to perform the curve analysis and QC analysis to calculate pIC50.

| IC50 [1] | IC50 [2] | Compound |
| --- | --- | --- |
| 0.2 nM | 15.8 nM | O=c1nc(OCc2cc(F)c(Oc3cccc(OC(F)(F)F)c3)c(F)c2)c2c3n1CCN3CCO2 [Compound 10] |
| 0.2 nM | 20 nM | O=c1nc(OCc2cc(F)c(Oc3ccc(C(F)(F)F)nc3)c(F)c2)c2c3n1CCN3CCO2 [Compound 5] |
| 10 nM | 126 nM | O=c1nc(OCc2cccc(F)c2F)c2c3n1CCCN3CCO2 [Compound 18] |
| 10 nM | 158 nM | O=c1nc(OCc2cccc(F)c2F)c2c3n1CCN3CCO2 [Compound 2] |
| 3.16 nM | 50.1 nM | O=c1nc(OCc2cc(F)c(F)c(F)c2)c2c3n1CCN3CCO2 [Compound 3] |
| 1 nM | 39.8 nM | Cc1ncc(Oc2c(F)cc(COc3nc(=O)n4c5c3OCCN5CC4)cc2F)cn1 [Compound 8] |
| 0.2 nM | 15.8 nM | Cc1cc(Oc2c(F)cc(COc3nc(=O)n4c5c3OCCN5CC4)cc2F)ccc1Cl [Compound 14] |
| 0.158 nM | 15.8 nM | Cc1cc(Oc2c(F)cc(COc3nc(=O)n4c5c3OCCN5CC4)cc2F)ccn1 [Compound 6] |
| 0.0794 nM | 10 nM | O=c1nc(OCc2cc(F)c(Oc3ccc(C(F)(F)F)nc3)c(F)c2)c2c3n1CCCN3CCO2 [Compound 16] |
| 0.0794 nM | 15.8 nM | O=c1nc(OCc2cc(F)c(Oc3ccc(OC(F)(F)F)c(Cl)c3)c(F)c2)c2c3n1CCN3CCO2 [Compound 12] |
| 0.126 nM | 12.6 nM | O=c1nc(OCc2cc(F)c(Oc3ccnc(C(F)(F)F)c3)c(F)c2)c2c3n1CCN3CCO2 [Compound 4] |
| 0.251 nM | 20 nM | Cc1ccc(Oc2c(F)cc(COc3nc(=O)n4c5c3OCCN5CC4)cc2F)cn1 [Compound 7] |
| 0.158 nM | 12.6 nM | O=c1nc(OCc2cc(F)c(Oc3ccc(Cl)c(C(F)(F)F)c3)c(F)c2)c2c3n1CCN3CCO2 [Compound 13] |
| 0.158 nM | 10 nM | O=c1nc(OCc2cc(F)c(Oc3ccc(C(F)(F)F)cc3)c(F)c2)c2c3n1CCN3CCO2 [Compound 9] |
| 3.98 nM | 63.1 nM | O=c1nc(OCc2cc(F)c(F)c(F)c2)c2c3n1CCCN3CCO2 [Compound 19] |
| 15.8 nM | 316 nM | O=c1nc(OCc2cc(F)c(F)cc2F)c2c3n1CCN3CCO2 [Compound 1] |
| 0.0631 nM | 7.94 nM | O=c1nc(OCc2cc(F)c(Oc3ccnc(C(F)(F)F)c3)c(F)c2)c2c3n1CCCN3CCO2 [Compound 15] |
| 0.0501 nM | 7.94 nM | Cc1ccc(Oc2c(F)cc(COc3nc(=O)n4c5c3OCCN5CCC4)cc2F)cn1 [Compound 17] |
| 0.1 nM | 10 nM | O=c1nc(OCc2cc(F)c(Oc3ccc(C(F)(F)F)c(Cl)c3)c(F)c2)c2c3n1CCN3CCO2 [Compound 11] |
